Data: US9676793B2, “Co-crystals of 5-amino-2-oxothiazolo[4,5-d]pyrimidin-3(2H)-yl-5-hydroxymethyl tetrahydrofuran-3-yl acetate and methods for preparing and using the same” (Hoffmann-La Roche Inc., priority 2014, dated 2017)
Read-outs that look alike come from different tables or passages of the source.

Assays:
Assay type in all cases: cell-based
[1] = system: HBV infected HepaRGd cells; test: Cell viability by CellTiter-Glo, direct treatment; conditions: for CC50: read-out: EC/CC50 (μM), Cell viability
[2] = Cell viability by CellTiter-Glo, direct treatment; conditions: human; for cytotoxicity at 7 days, 0.82 μM / cytotoxicity at 7 days, 2.47 μM / cytotoxicity at 7 days, 7.41 μM / cytotoxicity at 7 days, 22.22 μM / cytotoxicity at 7 days, 66.67 μM / cytotoxicity at 7 days, 200 μM: read-out: Cell viability (% inhibition)
human PBMCs = test: Cytokine profiling of conditioned media from stimulated PBMCs; conditions: no release with DMSO
Description: TLR-7 agonists stimulate the production cytokines and chemokines from human PBMC's. Conditioned medium was obtained by contacting cultured PBMC's with DMSO (control) or 100 μM R06871765 (drug) was contacted with HBV infected HepaRGd cells.
The anti-viral effect of conditioned medium obtained cultured PBMC's treated with R06871765 most likely is due to the release of cytokines and chemokines from PBMC's.

Compound: Nc1nc2c(sc(=O)n2[C@@H]2O[C@H](CO)C[C@H]2O)c(=O)[nH]1 [R06871765]
- CC50 ([1]; EXP ID 10/15/2012 AL): > 200 µM
- CC50 ([1]; EXP ID 10/15/2012 VL): > 200 µM
- maximum reduction in viability ([1]; highest concentration (200 μM)): about 17%
- cytotoxicity at 7 days, 0.82 μM ([2]; EXP ID 10/15/2012 AL): -2.58%
- cytotoxicity at 7 days, 0.82 μM ([2]; EXP ID 10/15/2012 VL): 3.23%
- cytotoxicity at 7 days, 2.47 μM ([2]; EXP ID 10/15/2012 AL): -2.57%
- cytotoxicity at 7 days, 2.47 μM ([2]; EXP ID 10/15/2012 VL): 0.54%
- cytotoxicity at 7 days, 7.41 μM ([2]; EXP ID 10/15/2012 AL): -2.85%
- cytotoxicity at 7 days, 7.41 μM ([2]; EXP ID 10/15/2012 VL): -1.5%
- cytotoxicity at 7 days, 22.22 μM ([2]; EXP ID 10/15/2012 AL): -2.43%
- cytotoxicity at 7 days, 22.22 μM ([2]; EXP ID 10/15/2012 VL): -1.37%
- cytotoxicity at 7 days, 66.67 μM ([2]; EXP ID 10/15/2012 AL): 3.7%
- cytotoxicity at 7 days, 66.67 μM ([2]; EXP ID 10/15/2012 VL): 7.34%
- cytotoxicity at 7 days, 200 μM ([2]; EXP ID 10/15/2012 AL): 12.3%
- cytotoxicity at 7 days, 200 μM ([2]; EXP ID 10/15/2012 VL): 22%
- CC50 at 7 days ([2]; HBV infected HepaRGd cells): > 200 µM
- release of IFN-α, IL-6, TNF-α and IP-10 from PBMCs (human PBMCs): induced release
